Reference: patent US20140051665A1, “PROSTATE CANCER THERAPY WITH HSP90 INHIBITORY COMPOUNDS” (SYNTA PHARMACEUTICALS CORP., priority 2011, published 2014)
Read-outs that look alike come from different tables or passages of the source.

Tests used:
PC3 cells [1] = experiment: Combination of AZD-7762 with ganetespib, killing of PC3 cells; type: cell-based, human
[2] = tested on: DU145 cells (EGFR, STAT3, IGF-IR); experiment: Western blot of Hsp90 client proteins, DU145; type: cell-based, human; settings: for exposure required for significant reductions in p-EGFR expression: DU145
Excerpt: (§1) Prostate cancer cell lines were lysed in RIPA buffer (Cell Signaling Technology, Beverly, Mass. USA) and HeLa lysed by four rounds of freeze/thawing using 1× Reporter Lysis Buffer (Promega, Madison, Wis., USA) containing 0.4 M NaCl. Lysates were clarified by centrifugation and equal amounts of protein resolved by SDSPAGE before transfer to nitrocellulose membranes. Membranes were blocked with 5% skim milk in TBS with 0.5% Tween and immunoblotted with indicated antibodies. Antigen-antibody complexes were visualized using an Odyssey system (LI-COR, Lincoln, Nebr., USA).

LNCaP cells = experiment: CellTiter-Glo cell viability assay, LNCaP
Description: (§3) The LNCaP, VCaP, 22Rv1, DU145 and PC3 human prostate cancer cell lines and HeLa cells were all purchased from the American Type Culture Collection (Manassas, Va., USA). Cells were maintained and cultured according to standard techniques at 37° C. in 5% (v/v) CO2 using culture medium recommended by the supplier. […] The Hsp90 inhibitors ganetespib and 17-AAG were synthesized at Synta Pharmaceuticals Corp. methyltrienolone (R1881) was purchased from Perkin-Elmer (Boston, Mass., USA).
(§4) Cellular viability was assessed using the CellTiter-Glo Luminescent Cell Viability Assay (Promega, Madison, Wis., USA) according to the manufacturer's protocol. Twenty-four hours after plating at 5×10^3 cells/well in triplicate in 96-well plates, cells were dosed with graded concentrations of ganetespib or 17-AAG for 72 h. CellTiter-Glo was added (50% v/v) to the cells, and the plates incubated for 10 min prior to luminescent detection in a SpectraMax Plus 384 microplate reader (Molecular Devices, Sunnyvale, Calif., USA). Data were normalized to percent of control and IC50 values used to determine the sensitivity of each line.

22Rv1 cells = experiment: CellTiter-Glo cell viability assay, 22Rv1; settings: read-out: cytotoxicity IC50, 22Rv1, 72 h
Description: as §3, §4

DU145 cells [3] = experiment: CellTiter-Glo cell viability assay, DU145; settings: read-out: cytotoxicity IC50
Description: as §3, §4

PC3 cells [4] = experiment: CellTiter-Glo cell viability assay, PC3; settings: read-out: cytotoxicity IC50
Description: as §3, §4

VCaP cells = experiment: CellTiter-Glo cell viability assay, VCaP
Description: as §3, §4

DU145 cells [5] = experiment: Annexin V apoptosis assay by flow cytometry; type: cell-based, human; settings: DU145, 24 h, escalating doses
Description: (§2) For cell cycle analysis, PC3 and DU145 cells were seeded overnight at 0.3×10^6 cells/5 mL in a 6-well plate and then exposed to increasing concentrations of ganetespib (0-500 nM) for 24 h. Cells were harvested and stained with propidium iodide using the BD Cycle TEST PLUS Reagent Kit (BD Biosciences, San Jose, Calif., USA) according to the manufacturer's instructions. Twenty thousand cells were analyzed for their DNA content using a FACS Caliber cytometer (BD Biosciences, Billerica, Mass., USA). For the apoptosis assay in the DU145 cell line, cells were treated with ganetespib (10, 100 or 500 nM), 17-AAG (500 or 1000 nM) or control (DMSO) for 24 h. Following treatment cells were harvested and stained using a fluorescein-conjugated anti-Annexin V antibody (BD Biosciences) and apoptosis assessed by flow cytometry.

[6] = tested on: 22Rv1 cells (full-length AR, p-AKT/AKT, PARP); experiment: Western blot, 22Rv1; type: cell-based, human; settings: 22Rv1, 24 h
Excerpt: as §1

PC3 tumor xenografts = experiment: In vivo prostate xenograft model; settings: for % T/C: PC3 xenografts in nude mice, i.v.
Description: Eight-week-old female immunodeficient nude mice (Charles River Laboratories, Wilmington, Mass.) were maintained in a pathogen-free environment, and all in vivo procedures were approved by the Synta Pharmaceuticals Corp. Institutional Animal Care and Use Committee. PC3 tumor cells were subcutaneously implanted into nude mice. […] Tumor volumes (V) were calculated by caliper measurements of the width (W), length (L), and thickness (T) of each tumor using the formula: V=0.5236(LWT). Tumor growth inhibition was determined as described previously.

V7 truncated AR isoform = experiment: Expression of transfected V7 truncated AR in HeLa, immunoblot; type: cell-based; settings: 24 h, 1 mM GA or 250 nM ganetespib
Description: (§5) HeLa cells were transiently transfected using a poly-L-lysine coupled adenoviral-mediated DNA transfer technique as previously described. […] The plasmid constructs used were pCR3.1-AR (encoding for full length AR) and pCR3.1-V7 (encoding for the V7 truncated AR isoform and which was a gift from Manjula Nakka and William Krause, Baylor College of Medicine).

[7] = tested on: DU-145 prostate carcinoma cells; experiment: alamarBlue cell viability assay, single agents and docetaxel combination; settings: DU-145 cells, 72 hr
[8] = tested on: LNCaP cells (AR, p-AKT/AKT, CDK1); experiment: Western blot of Hsp90 client proteins, LNCaP; type: cell-based, human
Excerpt: as §1

DU145 cells [9] = experiment: Cell cycle analysis by flow cytometry, DU145; type: cell-based, human; settings: DU145, 0-500 nM, 24 h
Description: as §2

full-length AR activity = experiment: GRE-luciferase reporter assay in HeLa, full-length AR; type: cell-based
Description: HeLa cells were transiently transfected using a poly-L-lysine coupled adenoviral-mediated DNA transfer technique as previously described. […] The plasmid constructs used were pCR3.1-AR (encoding for full length AR) and pCR3.1-V7 (encoding for the V7 truncated AR isoform and which was a gift from Manjula Nakka and William Krause, Baylor College of Medicine). […] To determine the effect of Hsp90 inhibitors on AR and variant activity, HeLa cells were transiently transfected with 250 ng of GRE-luciferase reporter, 30 ng of pCR3.1 β-galactosidase, 3 ng of pCR3.1-AR, or 0.03 ng of pCR3.1-V7 and treated as above. Luciferase and β-galactosidase activities were measured and luciferase levels normalized to β-galactosidase levels as described previously.

[10] = weekly dosing regimen; cited from earlier work
constitutive V7 activity = experiment: GRE-luciferase reporter assay in HeLa, V7 variant; type: cell-based
Excerpt: HeLa cells were transiently transfected using a poly-L-lysine coupled adenoviral-mediated DNA transfer technique as previously described. See, e.g., Nazareth et al (1996), Activation of the human androgen receptor through a protein kinase A signaling pathway. J Biol Chem 271 19900-19907. The plasmid constructs used were pCR3.1-AR (encoding for full length AR) and pCR3.1-V7 (encoding for the V7 truncated AR isoform and which was a gift from Manjula Nakka and William Krause, Baylor College of Medicine). For the expression study, HeLa cells were transfected with 3 ng of pCR3.1-AR or 0.5 ng of pCR3.1-V7 for 24 h. Cells were treated with R1881 (10 nM), GA (1 μM), and/or STA9090 (250 nM) or vehicle (ethanol and DMSO) for 24 hours prior to lysis and immunoblotting. To determine the effect of Hsp90 inhibitors on AR and variant activity, HeLa cells were transiently transfected with 250 ng of GRE-luciferase reporter, 30 ng of pCR3.1 β-galactosidase, 3 ng of pCR3.1-AR, or 0.03 ng of pCR3.1-V7 and treated as above. Luciferase and β-galactosidase activities were measured and luciferase levels normalized to β-galactosidase levels as described previously. See, e.g., Agoulnik et al (2003), Repressors of androgen and progesterone receptor action. J Biol Chem 278 31136-31148.

[11] = tested on: PCa cell lines (LNCaP, 22Rv1, PC-3, DU-145); experiment: Summary of potency in PCa cell line panel versus 17-AAG; type: cell-based, human
Description: as §4

PC3 cells (IGF-1R) = experiment: Western blot of Hsp90 client proteins, PC3; type: cell-based, human
Excerpt: as §1

PC3 cells [12] = experiment: Cell cycle analysis by flow cytometry, PC3; type: cell-based, human; settings: PC3, 0-500 nM, 24 h
Description: as §2

[13] = tested on: AR-specific transcriptional activity in LNCaP cells; experiment: Quantitative RT-PCR of AR-directed genes PSA and TMPRSS2; type: cell-based, human; settings: 250 nM ganetespib or 1 μM geldanamycin, 24 h, 10 nM R1881
Description: LNCaP cells were cultured in charcoal-stripped medium for 24 h and then treated with 250 nM ganetespib, 1 μM geldanamycin, or vehicle for 24 h in the absence or presence of 10 nM methyltrienolone (R1881). RNA was prepared from the LNCaP cells post-treatment using TRIzol reagent (Invitrogen, Grand Island, N.Y., USA). Previously reported prostate specific antigen (PSA), transmembrane protease, serine 2 (TMPRSS2), and 18S primer sets were used for target gene expression and were analyzed using SYBR green PCR Master mix in an ABI 7500 Fast sequence detection system. See, e.g., Agoulnik et al (2006), Androgens modulate expression of transcription intermediary factor 2, an androgen receptor coactivator whose expression level correlates with early biochemical recurrence in prostate cancer. Cancer Res 66 10594-10602. PSA and TMPRSS2 mRNA levels were normalized to 18S mRNA values.

full length AR = experiment: Expression of transfected full length AR in HeLa, immunoblot; type: cell-based; settings: 24 h, GA or 250 nM ganetespib, 10 nM R1881
Description: as §5

[14] = read-out: cytotoxicity IC50, 72 h
[15] = Homo sapiens, 72 h, read-out: cytotoxicity IC50

Compound: NC(=O)Nc1cc(-c2cccc(F)c2)sc1C(=O)N[C@H]1CCCNC1 [AZD-7762]
- combination effect with ganetespib in killing cells (PC3 cells [1]): in synergy with ganetespib

Compound: C=CCNC1=C2C[C@@H](C)C[C@H](OC)[C@H](O)[C@@H](C)/C=C(\C)[C@H](OC(N)=O)[C@@H](OC)/C=C\C=C(/C)C(=O)NC(=CC1=O)C2=O [Compound 17-AAG, 17-AAG, reference compound]
- exposure required for significant reductions in p-EGFR expression [2]: 18 h
- IC50 (LNCaP cells; [14]): 0.265 µM
- IC50 (22Rv1 cells): 1.27 µM
- IC50 (DU145 cells [3]; DU145, 72 h): 0.036 µM
- IC50 (PC3 cells [4]; PC3, 72 h): 0.246 µM
- IC50 (VCaP cells; [14]): 2.65 µM
- apoptotic cells, Annexin V staining (DU145 cells [5]): comparable proportion of apoptotic cells

Compound: CC(C)c1cc(-c2nnc(O)n2-c2ccc3c(ccn3C)c2)c(O)cc1O [Ganetespib, 3-(2,4-dihydroxy-5-isopropyl-phenyl)-4-(1-methyl-indol-5-yl)-5-hydroxy-[1,2,4] triazole]
- dose sufficient to induce degradation of full-length AR, destabilization of p-AKT/AKT and apoptosis (cleaved PARP) [6]: ≤ 25 nM
- exposure required for significant reductions in p-EGFR expression [2]: 18 h
- STAT3 signaling ([2]; DU145, 24 h, Western blot): completely abrogated
- tolerability of the regimen (PC3 tumor xenografts; 150 mg/kg weekly, nude mice): well tolerated
- % T/C (PC3 tumor xenografts; once a week at 150 mg/kg for 4 weeks): 17%
- % T/C (PC3 tumor xenografts; twice a week at 50 mg/kg for 4 weeks): 3%
- IC50 (LNCaP cells; [15]): 0.008 µM
- expression of the variant (V7) receptor (V7 truncated AR isoform): neither inhibitor significantly altered expression
- IC50 [7]: 0.014 µM
- IC50 (22Rv1 cells; Homo sapiens): 0.002 µM
- time of destabilization of p-AKT/AKT ([8]; 100 nM): 18 h
- time of loss of total and phosphorylated CDK1 ([8]; 100 nM): ≤ 24 h
- time to measurable reduction in AR expression ([8]; 100 nM): ≤ 3 h
- AR levels ([8]; 24 h, Western blot): potent and dose-dependent decrease
- cell cycle distribution (DU145 cells [9]): dose-dependent accumulation of cells in the G2/M phase
- full-length AR activity, luciferase assay (full-length AR activity): strongly inhibited
- highest non-severely toxic dose (HNSTD) [10]: 150 mg/kg
- constitutive V7 activity, luciferase assay (constitutive V7 activity): less effective
- IC50 (DU145 cells [3]; Homo sapiens, DU-145, 72 h): 0.012 µM
- IC50 fold less than 17-AAG [11]: 3-7 fold
- IC50 (PC3 cells [4]; Homo sapiens, PC-3, 72 h): 0.077 µM
- time by which IGF-1R levels were reduced (PC3 cells (IGF-1R)): ≤ 6 h
- cell cycle distribution (PC3 cells [12]): dose-dependent accumulation of cells in the G2/M phase
- R1881 induction of PSA and TMPRSS2 mRNA [13]: significantly inhibited
- androgen-increased full-length AR expression (full length AR): completely abrogated
- IC50 (VCaP cells; [15]): 0.007 µM
- apoptotic cells, Annexin V staining (DU145 cells [5]): dose-dependent increase in apoptotic cells

Compound: CC(=O)O[C@@]12CO[C@@H]1C[C@H](O)[C@@]1(C)C(=O)[C@H](O)C3=C(C)[C@@H](OC(=O)[C@H](O)[C@@H](NC(=O)OC(C)(C)C)c4ccccc4)C[C@@](O)([C@@H](OC(=O)c4ccccc4)[C@H]21)C3(C)C [docetaxel, reference compound]
- IC50 [7]: 0.001 µM
